US6869974B1, “Pharmaceutical compounds” (Nicox S.A., priority 1999, dated 2005)
Entries after “also recorded” stand apart in the source; their conditions may differ.

Key:
[1] = in vivo; details: rat, in vivo
Protocol: (§1) The animals (rats) are distributed in the following groups (no. 10 animals for group):
(§2) • 1° group: treatment: only carrier (aqueous suspension 1% w/v of carboxyymethylcellulose, dose: 5 ml/Kg when the drug is administered by os, or a physiologic solution when parenterally administered, i.e. by subcutaneous, intraperitoneal, ir-ravenous or intermuscular route), • 2° group: treatment: carrier as above defined+NEM, B) Groups treated with the drug: • group I: treatment: carrier+drug, • gruppo II: treatment: carrier+drug+NEM.
(§3) The administration routes are those known for the drug, and can be the oral or subcutaneous, intraperitoneal, intravenous or intramuscular route.
(§4) The animals are sacrificed after 24 hours and then one proceeds to the evaluation of the damage to the gastrointestinal mucosa.
(§5) Test 1—experimental model in vivo with N-ethylmaleimide (NEM): study of the gastric tolerability of some drugs screened as precursors of the compounds of the invention.
(§6) The animals (rats, weight about 200 g) are distributed in the following groups (No. 10 animals for group):
(§7) • 1° group: treatment: only carrier (aqueous suspension 1% w/v of carboxymethylcellulose, dose: 5 ml/Kg when the drug is administered by os, physiologic solution when by parenteral route), • 20 group: treatment: carrier+NEM, B) Groups administered with each drug: • group I: treatment: carrier+drug, • group II: treatment: carrier+drug+NEM.
(§8) The drug is administered one hour later, in suspension in the carrier. Animals are sacrificed after 24 hours and evaluation of the damage to the gastrointestinal mucosa is made by counting the number of rats, inside each group, with lesions to the stomach at a visual inspection. The total number of said rats is then divided by the total number of rats of the group and multiplied by 100.

[2] = tested on: Human endothelial cells of the umbilical vein; test: Test 2 (CIP): apoptosis (DNA fragmentation) induced by cumene hydroperoxide in endothelial cells; type: cell-based; details: for activity at 100 µM: Homo sapiens, Endothelial cell, 1 h, read-out: Apoptosis % with respect to the controls treated only with CIP; for inhibition of apoptosis induced by CIP (in words, significance p<0.01): CIP 5 mM
Protocol: Test 2 (CIP): Protection parameter of endothelial cell against the oxidative stress induced by cumene hydroperoxide (CIP).
Human endothelial cells of the umbilical vein are prepared according to an usual standard procedure. Fresh umbilical veins are filled with a 0.1% by weight collagenase solution and incubated at 37° C. for 5 minutes.
The cells are collected from the perfusate by centrifugation and harvested in culture flasks T-75, pretreated with human fibronectin. The cells are then harvested in the same medium, further added with 10 ng/ml of bovine hypothalamic growth factor. When the cells of the primary cell culture (i.e. that directly obtained from ex-vivo) form a single layer of confluent cells (about 8,000,000 cells/flask), the culture is stopped and the layers washed and trypsinized. The cellular suspensions are transferred into the wells of a cell culture plate having 24 wells, half of which is then additioned with the same culture medium containing the drug at a 10^−4M concentration, and harvested in a thermostat at 37° C. at a constant moisture. Only the cells coming from said first sub-cultures are used for the experiments with cumene hydroperoxide (CIP).
Before starting the test, the cellular culture medium is removed and the cellular layers are carefully washed with a physiologic solution at a temperature of 37° C. The wells of the culture plate are then incubated for one hour with CIP at a 5 mM concentration in the culture medium. […] 5 replicates for each sample are carried out.
Human endothelial cells of the umbilical vein are prepared according to a standard method. Fresh umbilical veins are filled with a collagenase solution 0.1% by weight and incubated at 37° C. for 5 minutes.
The cells are collected from the perfusate by centrifugation at 800 rpm and harvested in culture flasks T-75, pretreated with human fibronectin. Cells are then harvested in the same medium, added with bovine hypothalamic growth factor (100 ng/ml). When the cells of the primary cell culture (the cells directly removed from ex-vivo umbilical vein) form a single layer of confluent cells (abdut 8,000,000 cells/flask), harvesting is stopped and the layers are washed and trypsinized. The cellular suspensions are transferred into wells of a culture plate having 24 wells, half of said wells being added with the same culture medium containing the drug at a 10^−4M concentration, and harvested in a thermostat at 37° C. at a constant moisture (90%), CO2=5%. When the drug is not soluble in the culture medium, it is formerly dissolved in a small amount of di-methylsulphoxide. The maximum amount of dimethylsulphoxide which can be added to the culture medium is 0.5%. Only the cells coming from these first subcultures are used for the tests with cumene hydroperoxide (CIP).
Before starting the test, the cellular culture medium is removed and the cellular layers are carefully washed with a standard physiologic solution buffered with phosphate 0.1 M pH 7.0, at the temperature of 37° C. The content of each well is then incubated for one hour with a CIP suspension in the culture medium at a 5 mM concentration. Evaluation of the cellular damage (apoptosis) is carried out by determining the percent variation of the DNA fragmentation in the cultures containing the drug+CIP with respect to the controls treated with CIP only. […] The fluorescence of each sample was determined on 5 replicates. Statistic evaluation has been made with t Student test (p<0.01).

[3] = Test 4: inhibition of radical production from DPPH; details: 100 μM (10^-4 M) in methanol, 30 minutes, absorbance 517 nm
Protocol: Test 4 is a […] test which affords to establish whether the precursor of B or B1 (precursor of the X2 or X2a of the formulas (I) and (II) respectively), inhibits the production of radicals from DPPH (2,2-diphenyl-1-picryl-hydrazyl) (M. S. Nenseter et Al., Atheroscler. Thromb. 15, 1338-1344, 1995). 100 μM solutions in methanol of the tested substances are prepared, and an aliquot of each of said solutions is added to a DPPH solution in methanol […]. After having stored the solutions at room temperature away from light for 30 minutes, their absorbances are read at the wave length of 517 nm, together with that of the corresponding DPPH solution at the same concentration. The absorbance decrease with respect to that of the solution of DPPH at the same concentration of the test solutions is determined. The effectiveness of the tested compound in inhibiting formation of radicals by DPPH is expressed by the following formula: (1−AS/AC)X100 wherein AS and AC are respectively the absorbance values of the solution containing the test compound together with DPPH and of the solution containing only DPPH.
The B or B1 precursor satisfies test 4 if their effectiveness in inhibiting radical production as above defined, is equal to or higher than 50% at the indicated concentration (10^−4 M).
Test 4: inhibition of the radical production from DPPH of some substances to be used as precursors of B or B1 (ref. Formulas I and II of the invention)
The method is based on a colorimetric test in which DPPH (2,2-diphenyl-1-picryl-hydrazyl) is used as the compound-forming radicals (M. S. Nenseter et Al., Atheroscler. Thromb. 15, 1338-1344, 1995).
Solutions in methanol of the tested substances at a final concentration 100 μM are initially prepared. 0.1 ml of each of these solutions are added to aliquots of 1 ml of a methanol solution 0.1 M of DPPH and then the final volume is brought to 1.5 ml. After having stored the solutions at room temperature away from light for 30 minutes, the absorbance at the wave length of 517 nm is read. It is determined the absorbance decrease with respect to the absorbance of a solution containing the same concentration of DPPH.
The efficacy of the test compound to inhibit the production of radicals, or antiradical activity, is expressed by the following formula: (1−AS/AC)X100 wherein AS and AC are, respectively, the absorbance values of the solution containing the test compound together+DPPH and of the solution containing only DPPH.
The compound meets test 4 if radical production inhibition, as above defined, is equal to or higher than 50%.

[4] = tested on: rats not treated or treated with NEM; test: in vivo; details: rats not treated with NEM; single dose; route given with each value (p.o., i.c., s.c.)
Protocol: as §1, §2, §3, §4, §5, §6, §7, §8

[5] = Table II, drug 10^-4 M, CIP 5 mM for one hour, DNA fragmentation

CCCCC(C)(O)C/C=C/[C@H]1[C@H](O)CC(=O)[C@@H]1CCCCCCC(=O)OC (mixture of isomers) [Misoprostol, misoprostol]
MTD at 24 h [1]: 0.5 mg/kg

NCCCC(O)(P(=O)(O)O)P(=O)(O)O [Alendronate, sodic alendronate]
activity at 100 µM [2, 5]: 160% | inhibition of apoptosis induced by CIP (in words, significance p<0.01) ([2]; drug 10^-4 M): do not significantly inhibit apoptosis

Nc1c(Br)cc(Br)cc1CN[C@H]1CC[C@H](O)CC1 [Ambroxol, ambroxol]
inhibition of apoptosis induced by CIP (in words, significance p<0.01) ([2]; drug 10^-4 M): inhibit apoptosis

CC1(C)S[C@@H]2[C@H](NC(=O)[C@H](N)c3ccccc3)C(=O)N2[C@H]1C(=O)O [Ampicilline, ampicilline]
inhibition of apoptosis induced by CIP (in words, significance p<0.01) ([2]; drug 10^-4 M): do not significantly inhibit apoptosis

N[C@@H](CS)C(=O)O [Cisteine, cisteine]
% inhibition radicals from DPPH ([3]; 100 µM): 100%

Cn1c(=O)c2c(ncn2CC(O)CO)n(C)c1=O (stereo not shown) [Diphylline, diphylline]
activity at 100 µM [2, 5]: 95% | inhibition of apoptosis induced by CIP (in words, significance p<0.01) ([2]; drug 10^-4 M): do not significantly inhibit apoptosis

COc1cc(/C=C/C(=O)O)ccc1O [Ferulic acid, ferulic acid]
% inhibition radicals from DPPH ([3]; 100 µM): 100%

O=C(O)c1cc(O)ccc1O [Gentisic acid, gentisic acid]
% inhibition radicals from DPPH ([3]; 100 µM): 80%

COc1ccc2c(c1)c(CC(=O)O)c(C)n2C(=O)c1ccc(Cl)cc1 [Indomethacin, indomethacin]
maximum tolerated dose (dose (mg/Kg)/admin. route) [4]: 7.5 mg/kg | activity at 100 µM [2, 5]: 95% | Apoptosis % with respect to the controls treated only with CIP ([2]; Table III, second apoptosis experiment (Example F6), CIP-induced DNA fragmentation): 95% | inhibition of apoptosis induced by CIP (in words, significance p<0.01) ([2]; drug 10^-4 M): not significantly different with respect to that of the controls | inhibition of apoptosis induced by CIP (in words, significance p<0.01) ([2]; drug 10^-4 M, listed as indomethacin): do not significantly inhibit apoptosis

Nc1ccc(O)c(C(=O)O)c1 [Mesalamine, mesalamine]
MTD at 24 h [1]: 750 mg/kg | activity at 100 µM [2, 5]: 74% | inhibition of apoptosis induced by CIP (in words, significance p<0.01) ([2]; drug 10^-4 M): inhibit apoptosis; also recorded: inhibits the apoptosis induced by CIP

CC(=O)N[C@H](CS)C(=O)O [N-acetylcisteine]
% inhibition radicals from DPPH ([3]; listed as N-acetylcysteine, 100 µM): 100%

NC(=O)c1cccnc1 [Nicotinamide, nicotinamide]
activity at 100 µM [2, 5]: 98% | inhibition of apoptosis induced by CIP (in words, significance p<0.01) ([2]; drug 10^-4 M): do not significantly inhibit apoptosis

COc1ccc2[nH]c([S+]([O-])Cc3ncc(C)c(OC)c3C)nc2c1 (stereo not shown) [Omeprazol, omeprazol]
maximum tolerated dose (dose (mg/Kg)/admin. route) [4]: 30/s.c. mg/Kg | activity at 100 µM [2, 5]: 90% | inhibition of apoptosis induced by CIP (in words, significance p<0.01) ([2]; drug 10^-4 M): do not significantly inhibit apoptosis

CC(=O)Nc1ccc(O)cc1 [Paracetamol, paracetamol]
activity at 100 µM [2, 5]: 120% | inhibition of apoptosis induced by CIP (in words, significance p<0.01) ([2]; drug 10^-4 M): do not significantly inhibit apoptosis; also recorded: not significantly different with respect to that of the controls

CC(C)(S)[C@@H](N)C(=O)O [Penicillamine, penicillamine]
% inhibition radicals from DPPH [3]: 100%

CC(C)(C)NCC(O)c1ccc(O)c(CO)c1 (stereo not shown) [Salbutamol, salbutamol]
activity at 100 µM [2, 5]: 90% | inhibition of apoptosis induced by CIP (in words, significance p<0.01) ([2]; drug 10^-4 M): do not significantly inhibit apoptosis

CCC(C)(C)C(=O)O[C@H]1C[C@@H](C)C=C2C=C[C@H](C)C(CCC3CC(O)CC(=O)O3)[C@H]21 (stereo partly shown) [Simvastatine, simvastatine]
activity at 100 µM [2, 5]: 72%

Nc1c2c(nc3ccccc13)CCCC2 [Tacrine, tacrine]
maximum tolerated dose (dose (mg/Kg)/admin. route) [4]: 1/s.c. mg/Kg | activity at 100 µM [2, 5]: 90% | inhibition of apoptosis induced by CIP (in words, significance p<0.01) ([2]; drug 10^-4 M): do not significantly inhibit apoptosis

aciclovir
Apoptosis % with respect to the controls treated only with CIP [2, 5]: 95% | inhibition of apoptosis induced by CIP (in words, significance p<0.01) ([2]; drug 10^-4 M): do not significantly inhibit apoptosis

cetirizine
Apoptosis % with respect to the controls treated only with CIP [2, 5]: 115% | inhibition of apoptosis induced by CIP (in words, significance p<0.01) ([2]; drug 10^-4 M): do not significantly inhibit apoptosis

clopidogrel
Apoptosis % with respect to the controls treated only with CIP [2, 5]: 110% | inhibition of apoptosis induced by CIP (in words, significance p<0.01) ([2]; drug 10^-4 M): do not significantly inhibit apoptosis

enalapril
inhibition of apoptosis induced by CIP (in words, significance p<0.01) ([2]; drug 10^-4 M): do not significantly inhibit apoptosis
